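Five concentrations, 48 hours, 96-well plates. TGI: concentration producing complete growth inhibition.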
What was measured:
Assay in all cases: NCI tumour cell line growth inhibition, 48 h
[1] = system: CAKI-1 renal
[2] = system: CCRF-CEM leukemia
[3] = system: HL-60(TB) leukemia
[4] = system: HT29 colon
[5] = system: NCI-H522 lung
[6] = system: OVCAR-8 ovarian
[7] = system: SF-539 CNS
[8] = system: SK-MEL-28 melanoma
[9] = system: SK-MEL-5 melanoma
[10] = system: UACC-62 melanoma
[11] = system: NCI-H460 lung

SMILES	TGI [1]	TGI [2]	TGI [3]	TGI [4]	TGI [5]	TGI [6]	TGI [7]	TGI [8]	TGI [9]	TGI [10]	TGI [11]
O=C(N/N=C/c1ccc([N+](=O)[O-])o1)c1ccc(C(=O)N/N=C/c2ccc([N+](=O)[O-])o2)cc1	> 100 µM	42.4 µM	44.4 µM	> 100 µM	> 100 µM	77.9 µM	38.3 µM	75.7 µM	55.6 µM	> 100 µM	–
CC(C)(C)OC(=O)N(O)CCCn1cnc2c(N)ncnc21	–	> 100 µM	–	> 100 µM	> 100 µM	> 100 µM	> 100 µM	> 100 µM	> 100 µM	> 100 µM	> 100 µM
CS(=O)(=O)c1c(N)c2nc(Cl)cn2c2nc3ccccc3nc12	> 100 µM	> 100 µM	–	> 100 µM	> 100 µM	> 100 µM	> 100 µM	> 100 µM	> 100 µM	> 100 µM	> 100 µM
C/C1=C/C(C)CC(C)OC(=O)C(C)NC(=O)C(Cc2ccc(O)c(I)c2)N(C)C(=O)C(C)NC(=O)C(C)C1 (centres undefined)	–	–	< 0.01 µM	> 40.7 µM	0.649 µM	17.9 µM	1.61 µM	–	11.7 µM	15 µM	12.8 µM
O=C(Cc1csc(N=Nc2c(O)[nH]c3ccccc23)n1)Nc1ccccc1	53.4 µM	–	94 µM	59 µM	–	65.8 µM	79.4 µM	46.5 µM	> 100 µM	–	> 100 µM
CCN(CC)C(=S)SS(=O)(=O)c1ccc(Cl)cc1	43.5 µM	–	–	32.1 µM	0.0995 µM	34 µM	43.5 µM	34.4 µM	30.9 µM	> 100 µM	> 100 µM
CC(C)(C)NC(=O)NC12CC3CC(CC(F)(C3)C1)C2	–	> 100 µM	> 100 µM	> 100 µM	> 100 µM	> 100 µM	> 100 µM	> 100 µM	–	> 100 µM	> 100 µM
Cc1ccc(N=N/C(=N/NC(=O)c2cc(Cl)ccc2C(=O)c2ccccc2)c2ccc(N(CCC#N)CCC#N)cc2C)cc1	79.3 µM	13.1 µM	–	39.9 µM	19.9 µM	29.9 µM	–	> 100 µM	33.6 µM	36.2 µM	13.6 µM
Cc1oc(N)c(S(=O)(=O)c2ccc(Cl)cc2)c1C	–	> 100 µM	> 100 µM	> 100 µM	> 100 µM	> 100 µM	64.2 µM	> 100 µM	> 100 µM	> 100 µM	> 100 µM
Cc1cc(S(=O)(=O)/N=C(\[N-]S(=O)(=O)c2ccc(Cl)cc2)[n+]2ccc(N(C)C)cc2)c(S)cc1Cl	> 100 µM	> 100 µM	> 100 µM	> 100 µM	> 100 µM	> 100 µM	> 100 µM	> 100 µM	> 100 µM	–	> 100 µM
CC1(C)CC(=O)C2=C(C1)NC1=C(C(=O)CC(C)(C)C1)C2c1ccc([N+](=O)[O-])cc1	> 100 µM	–	> 100 µM	> 100 µM	> 100 µM	> 100 µM	> 100 µM	> 100 µM	> 100 µM	> 100 µM	> 100 µM
COc1cc(C=C2C(C)=NN(c3cccc(Cl)c3)C23C(Cl)C(=O)N3c2nc3ccccc3s2)ccc1O (centres undefined)	71.5 µM	38.8 µM	36 µM	26.7 µM	12.5 µM	41.5 µM	> 100 µM	> 100 µM	36.9 µM	–	66.1 µM
C/C=C\C(CC(=O)NCCC1CN(S(=O)(=O)C(F)(F)F)c2ccccc21)CC(=O)OC (centres undefined)	> 100 µM	> 100 µM	–	51.3 µM	52 µM	> 100 µM	–	> 100 µM	41.4 µM	> 100 µM	> 100 µM
O=C1CC(=O)NC(=NN2C(=O)/C(=C/c3ccccc3)N=C2c2ccccc2)N1	> 100 µM	> 100 µM	–	> 100 µM	> 100 µM	> 100 µM	> 100 µM	> 100 µM	> 100 µM	96.5 µM	> 100 µM
CC(=O)Oc1cc2c(c3ncccc13)OC(C)(C)C2	21.3 µM	28.7 µM	–	36.9 µM	8.26 µM	74.8 µM	26.9 µM	> 100 µM	25.4 µM	> 100 µM	31.3 µM
COC(C(=O)C(O)C(C)O)C1CC2C=C3C=C(OC4CC(OC5CC(O)C(OC)C(C)O5)C(OC(C)=O)C(C)O4)C(C)C(=O)C3=C(O)C2=C(O)C1OC1CC(OC2CC(OC3CC(C)(O)C(OC(=O)C(C)C)C(C)O3)C(O)C(C)O2)C(O)C(C)O1 (centres undefined)	> 100 µM	–	< 0.01 µM	–	< 0.01 µM	< 0.01 µM	< 0.01 µM	< 0.01 µM	< 0.01 µM	< 0.01 µM	–
